Measurements published in patent US20250228835A1, “PYRIDINYLOXYPYRIDINES AND RELATED COMPOUNDS AND THEIR USE IN TREATING MEDICAL CONDITIONS” (Rectify Pharmaceuticals, Inc., priority 2024, published 2025).

Tests used:
[1] = target: T1, ABCA4 P1380L (Homo sapiens, UniProt P78363, P1380L); test: A4 correction dose-response assay: ABCA4 P1380L HiBit protein expression; format: cell-based; conditions: HEK-293 cells stably expressing HiBit-tagged ABCA4 P1380L; 24 h treatment; top concentration 30 μM; read-out: ABCA4 P1380L EC50, Emax
T1 construct: expressed in transfected cells
T1 sequence (P78363 whole entry P1380L): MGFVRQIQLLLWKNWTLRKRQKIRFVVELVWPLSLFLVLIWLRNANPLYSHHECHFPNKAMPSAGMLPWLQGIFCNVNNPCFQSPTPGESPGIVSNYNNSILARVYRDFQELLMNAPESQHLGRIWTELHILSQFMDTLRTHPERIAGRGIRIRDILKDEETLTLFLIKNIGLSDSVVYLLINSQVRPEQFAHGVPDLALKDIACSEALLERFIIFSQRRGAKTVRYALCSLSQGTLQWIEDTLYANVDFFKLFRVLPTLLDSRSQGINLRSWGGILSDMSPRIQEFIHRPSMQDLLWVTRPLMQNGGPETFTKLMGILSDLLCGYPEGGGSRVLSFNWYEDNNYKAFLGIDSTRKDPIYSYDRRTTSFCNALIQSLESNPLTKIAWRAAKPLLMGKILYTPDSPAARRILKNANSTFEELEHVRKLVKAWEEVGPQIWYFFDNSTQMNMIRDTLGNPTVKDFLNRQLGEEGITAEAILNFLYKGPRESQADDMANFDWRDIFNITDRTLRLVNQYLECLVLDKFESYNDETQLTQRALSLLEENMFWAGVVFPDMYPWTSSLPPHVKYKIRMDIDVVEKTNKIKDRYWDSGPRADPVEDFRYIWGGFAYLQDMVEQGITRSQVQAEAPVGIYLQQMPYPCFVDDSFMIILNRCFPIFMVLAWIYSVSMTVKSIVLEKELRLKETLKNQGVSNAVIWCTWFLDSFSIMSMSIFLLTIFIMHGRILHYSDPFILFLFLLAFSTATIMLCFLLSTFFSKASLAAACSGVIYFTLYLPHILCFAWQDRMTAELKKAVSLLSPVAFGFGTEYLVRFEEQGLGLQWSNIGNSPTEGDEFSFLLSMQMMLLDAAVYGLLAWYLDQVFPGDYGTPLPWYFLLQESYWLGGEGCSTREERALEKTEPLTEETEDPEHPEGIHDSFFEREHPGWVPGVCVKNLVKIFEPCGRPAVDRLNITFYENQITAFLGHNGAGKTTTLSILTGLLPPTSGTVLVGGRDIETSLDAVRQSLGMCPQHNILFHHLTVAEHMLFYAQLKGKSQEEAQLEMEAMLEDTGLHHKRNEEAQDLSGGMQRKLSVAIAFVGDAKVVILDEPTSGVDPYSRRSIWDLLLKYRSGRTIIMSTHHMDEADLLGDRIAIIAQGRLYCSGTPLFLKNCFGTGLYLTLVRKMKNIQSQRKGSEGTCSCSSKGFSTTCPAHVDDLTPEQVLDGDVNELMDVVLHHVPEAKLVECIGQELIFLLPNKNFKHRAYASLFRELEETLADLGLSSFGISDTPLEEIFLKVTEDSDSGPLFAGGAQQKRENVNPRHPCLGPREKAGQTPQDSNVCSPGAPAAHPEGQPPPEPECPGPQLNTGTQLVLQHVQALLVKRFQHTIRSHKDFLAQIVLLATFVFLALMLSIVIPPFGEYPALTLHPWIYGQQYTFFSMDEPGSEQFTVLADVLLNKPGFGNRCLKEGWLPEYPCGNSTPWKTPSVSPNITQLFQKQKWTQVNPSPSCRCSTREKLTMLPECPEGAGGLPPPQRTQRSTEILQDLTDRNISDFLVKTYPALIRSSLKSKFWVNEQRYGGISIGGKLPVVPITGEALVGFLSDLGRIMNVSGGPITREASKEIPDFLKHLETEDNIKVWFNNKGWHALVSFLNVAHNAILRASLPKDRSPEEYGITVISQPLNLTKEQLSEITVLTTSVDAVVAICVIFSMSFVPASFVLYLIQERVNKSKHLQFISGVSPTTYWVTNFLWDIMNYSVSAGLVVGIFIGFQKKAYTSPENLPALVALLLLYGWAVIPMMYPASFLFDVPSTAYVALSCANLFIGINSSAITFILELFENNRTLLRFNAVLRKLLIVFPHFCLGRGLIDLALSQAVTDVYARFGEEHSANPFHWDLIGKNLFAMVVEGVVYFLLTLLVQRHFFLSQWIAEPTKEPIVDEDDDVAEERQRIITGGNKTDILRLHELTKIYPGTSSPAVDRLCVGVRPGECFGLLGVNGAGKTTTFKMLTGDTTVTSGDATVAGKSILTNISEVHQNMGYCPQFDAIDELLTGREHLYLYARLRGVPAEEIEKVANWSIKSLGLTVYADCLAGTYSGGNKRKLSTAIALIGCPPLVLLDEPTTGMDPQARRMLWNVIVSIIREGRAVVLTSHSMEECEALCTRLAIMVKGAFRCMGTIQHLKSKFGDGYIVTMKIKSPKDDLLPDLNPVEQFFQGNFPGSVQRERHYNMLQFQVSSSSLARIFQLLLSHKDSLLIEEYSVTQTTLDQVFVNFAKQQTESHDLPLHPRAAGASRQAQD
Procedure: Exemplary compounds were evaluated in an A4 correction dose-response assay.
To assess activity against ABCA4 P1380L, the compounds were screened in an assay measuring protein expression, using cells transfected with cDNA encoding HiBit-tagged ABCA4 P1380L. Here we describe an assay for measuring the expression of the P1380L variant of human ABCA4 (henceforth referred to as ABCA4 P1380L) and the use of this assay to measure the efficacy of compounds to increase the expression of ABCA4 P1380L. The assay was designed to characterize the efficacy and potency of compounds to increase the expression of ABCA4 P1380L by calculating an Emax and EC50 value. […] (5% CO2, humidified). […] After the four-hour incubation period, 60 nL of DMSO solutions are transferred to the assay plate.
(§1) Dose response curves include eleven doses with the top final concentration at 30 μM in 0.3% DMSO. Liquid handling is performed with ECHO 550 Acoustic Liquid Handler (Labcyte). After addition of compound treatment, cells are incubated for 24 hours at 37° C. (5% CO2, humidified). After the 24-hour treatment, plates are allowed to equilibrate to room temperature for 10 minutes. Using Dragonfly Automated Liquid Handler (TTP LabTech), 20 μl of HiBit lytic assay reagent (Promega, product #N3040), which is prepared according to manufacturer's instructions, is added to each well. The plates are rotated at room temperature for 2 minutes and incubated for 1 hour at 25° C. before luminescent signal is acquired using an EnVision Multimode Plate Reader (PerkinElmer).

[2] = target: T2, ABCB4 WT (Homo sapiens, UniProt P21439); test: ABCB4 WT assay: HiBit protein expression; format: cell-based; conditions: HEK-293 cells stably expressing HiBit-tagged ABCB4 WT; 24 h treatment; top concentration 30 μM; read-out: ABCB4 WT EC50, Emax
T2 construct: expressed in transfected cells
T2 sequence (P21439 whole entry): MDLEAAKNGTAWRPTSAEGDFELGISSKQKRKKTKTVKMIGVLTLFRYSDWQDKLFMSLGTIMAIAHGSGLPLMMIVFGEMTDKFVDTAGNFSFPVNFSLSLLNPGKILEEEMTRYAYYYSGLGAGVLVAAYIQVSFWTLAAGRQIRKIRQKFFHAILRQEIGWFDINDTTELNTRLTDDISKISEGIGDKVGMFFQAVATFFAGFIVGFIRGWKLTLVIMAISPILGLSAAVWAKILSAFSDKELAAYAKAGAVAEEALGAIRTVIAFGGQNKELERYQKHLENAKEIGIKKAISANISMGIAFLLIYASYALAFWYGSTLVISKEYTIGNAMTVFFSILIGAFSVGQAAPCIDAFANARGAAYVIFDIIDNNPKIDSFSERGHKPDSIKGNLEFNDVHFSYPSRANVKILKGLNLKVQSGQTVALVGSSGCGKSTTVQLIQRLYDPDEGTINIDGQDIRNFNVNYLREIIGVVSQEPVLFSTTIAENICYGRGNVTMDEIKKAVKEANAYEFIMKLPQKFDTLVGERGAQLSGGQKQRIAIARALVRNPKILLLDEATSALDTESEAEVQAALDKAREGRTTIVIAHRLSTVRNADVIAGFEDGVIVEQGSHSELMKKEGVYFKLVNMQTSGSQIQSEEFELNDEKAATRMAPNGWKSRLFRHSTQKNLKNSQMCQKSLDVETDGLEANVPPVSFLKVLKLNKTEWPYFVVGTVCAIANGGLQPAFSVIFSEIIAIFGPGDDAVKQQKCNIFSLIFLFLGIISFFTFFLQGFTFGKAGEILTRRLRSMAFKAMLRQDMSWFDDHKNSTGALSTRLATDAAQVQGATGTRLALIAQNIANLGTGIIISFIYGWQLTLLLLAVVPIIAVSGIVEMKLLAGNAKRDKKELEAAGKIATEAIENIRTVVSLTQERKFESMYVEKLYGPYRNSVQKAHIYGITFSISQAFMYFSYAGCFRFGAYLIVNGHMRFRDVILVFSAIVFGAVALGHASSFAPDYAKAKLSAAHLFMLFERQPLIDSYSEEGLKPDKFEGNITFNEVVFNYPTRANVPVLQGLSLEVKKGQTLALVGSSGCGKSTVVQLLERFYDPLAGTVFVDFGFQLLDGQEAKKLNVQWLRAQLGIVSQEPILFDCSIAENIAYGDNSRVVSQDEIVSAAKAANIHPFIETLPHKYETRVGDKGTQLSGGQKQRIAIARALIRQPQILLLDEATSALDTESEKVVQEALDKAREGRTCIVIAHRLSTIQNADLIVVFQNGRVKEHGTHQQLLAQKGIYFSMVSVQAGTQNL
Description: To assess activity against ABCB4, compounds were screened in an assay measuring protein expression, using cells transfected with cDNA encoding HiBit-tagged ABCB4 wild-type.
Described here is an assay for measuring the expression of the wild type of human ABCB4 (henceforth referred to as ABCB4 WT) and the use of this assay to measure the efficacy of compounds to increase the expression of ABCB4 WT. The assay was designed to characterize the efficacy and potency of compounds to increase the expression of ABCB4 WT by calculating an Emax and EC50 value. HEK-293 cells stably expressing ABCB4 WT (HEK-293/ABCB4 WT) were used for this assay and were maintained at 37° C. (5% CO2, humidified) in Dulbecco's Modified Eagle Medium (DMEM, Gibco product #12100) supplemented with 10% fetal bovine serum (Biosera product #FB-1058/500), 1% PenStrep (HDB product #15140-122), and 0.5 mg/mL puromycin (Gibco product #A11138-03). For the assay, the HEK-293/ABCB4 WT cells were seeded in white/opaque 384-well plates (Corning product #3570) at 10,000 cells/well in 20 μl growth medium and allowed to settle for 4 hours at 37° C. (5% CO2, humidified). Compound serial dilutions are prepared in DMSO as three hundred times (333×) the final concentration and using a dilution factor of 3 using Bravo (Agilent). After the four-hour incubation period, 60 nL of DMSO solutions are transferred to the assay plate.
as §1
Results are presented below in Table 5 for ABCB4 WT.

| Compound | EC50 [1] | EC50 [2] |
| --- | --- | --- |
| Cc1cc(C)c(Oc2nc(-c3cncc(C4CC4)c3)ccc2NS(C)(=O)=O)c(C)n1 [Compound I-232] | < 25 µM | < 25 µM |
| Cc1cc(C)c(Oc2nc(-c3cncc(C#N)c3)ccc2N2CCCS2(=O)=O)c(C)n1 [Compound I-221] | 1 to 10 µM | ≥ 25 µM |
| Cc1nc(C2CC2)c(C(F)F)cc1Oc1nc(-c2cncc(C#N)c2)ccc1NS(C)(=O)=O [Compound I-179] | > 25 µM | < 1 µM |
| COc1cc(-c2ccc(NS(C)(=O)=O)c(Oc3c(C)cc(C)nc3C)n2)ccn1 [Compound I-188] | 1 to 10 µM | ≥ 25 µM |
| Cc1cc(C)c(Oc2nc(-c3cnn(C)c3C)ccc2NS(C)(=O)=O)c(C)c1 [Compound I-13] | 1 to 10 µM | 1 to 10 µM |
| CC(=O)N1CCN(c2ccc(NS(C)(=O)=O)c(Oc3c(C)cc(C)cc3C)n2)CC1 [Compound I-17] | > 25 µM | ≥ 25 µM |
| Cc1nc(C)c(C(F)(F)F)cc1Oc1nc(-c2cncc(C#N)c2)ccc1NS(C)(=O)=O [Compound I-225] | > 25 µM | < 25 µM |
| Cc1cc(C)c(Oc2nc(-c3cncc(C4COC4)c3)ccc2NS(C)(=O)=O)c(C)n1 [Compound I-216] | > 25 µM | < 1 µM |
| Cc1cc(C2CC2)nc(C)c1Oc1nc(-c2cncc(Cl)c2)ccc1NS(=O)(=O)C1COC1 [Compound I-236] | < 25 µM | < 25 µM |
| Cc1cc(N2CC(F)(F)C2)nc(C)c1Oc1nc(-c2cncc(C#N)c2)ccc1NS(C)(=O)=O [Compound I-180] | > 25 µM | < 1 µM |
| Cc1nc(Oc2nc(-c3cncc(C#N)c3)ccc2NS(C)(=O)=O)c(C)s1 [Compound I-107] | > 25 µM | ≥ 25 µM |
| Cc1cc(C(F)(F)F)nc(C)c1Oc1nc(-c2cncc(C3COC3)c2)ccc1NS(C)(=O)=O [Compound I-198] | > 25 µM | < 1 µM |
| Cc1cc(Oc2nc(-c3cncc(C#N)c3)ccc2NS(C)(=O)=O)c(C)nc1C1CC1 [Compound I-127] | 1 to 10 µM | < 1 µM |
| COCc1cncc(-c2ccc(NS(C)(=O)=O)c(Oc3c(C)cc(C)nc3C)n2)c1 [Compound I-231] | 1 to 10 µM | 1 to 10 µM |
| Cc1cc(C)c(Oc2nc(-n3cc(C)cn3)ccc2NS(C)(=O)=O)c(C)c1 [Compound I-11] | > 25 µM | ≥ 25 µM |
| Cc1cc(C)c(Oc2nc(-c3ccn(C)c(=O)c3)ccc2NS(C)(=O)=O)c(C)n1 [Compound I-186] | > 25 µM | ≥ 25 µM |
| Cc1cc(C2CC2)nc(C)c1Oc1nc(-c2cncc(C#N)c2)ccc1NS(=O)(=O)C1COC1 [Compound I-235] | < 25 µM | < 25 µM |
| COC1CN(c2cncc(-c3ccc(NS(C)(=O)=O)c(Oc4c(C)cc(C)nc4C)n3)c2)C1 [Compound I-196] | > 25 µM | ≥ 25 µM |
| Cc1cc(C)c(Oc2nc(N3CCN(C(=O)C4(C)CC4)CC3)ccc2NS(C)(=O)=O)c(C)c1 [Compound I-15] | 1 to 10 µM | 1 to 10 µM |
| Cc1cc(C)c(Oc2nc(-c3cncc(S(C)(=N)=O)c3)ccc2NS(C)(=O)=O)c(C)n1 (centres unmarked) [Compound I-116] | > 25 µM | ≥ 25 µM |
| Cc1cc(C)c(Oc2nc(-n3cnc(C)c3)ccc2NS(C)(=O)=O)c(C)c1 [Compound I-12] | > 25 µM | < 25 µM |
| Cc1cc(C)c(Oc2nc(-c3cncc(N4CC(F)(F)C4)c3)ccc2NS(C)(=O)=O)c(C)n1 [Compound I-195] | > 25 µM | < 1 µM |
| Cc1cc(C)c(Oc2nc(-c3cncc(N4CCOCC4)c3)ccc2NS(C)(=O)=O)c(C)n1 [Compound I-201] | 1 to 10 µM | ≥ 25 µM |
| COC(=O)N1CCN(c2ccc(NS(C)(=O)=O)c(Oc3c(C)cc(C)cc3C)n2)CC1 [Compound I-16] | > 25 µM | ≥ 25 µM |
| Cc1nc(C2COC2)nc(C)c1Oc1nc(-c2cncc(C#N)c2)ccc1NS(C)(=O)=O [Compound I-174] | 1 to 10 µM | ≥ 25 µM |
| CNS(=O)(=O)c1ccc(-c2cncc(C#N)c2)nc1Oc1c(C)nc(C(F)(F)F)nc1C [Compound I-167] | 1 to 10 µM | 1 to 10 µM |
| Cc1cc(C)c(Oc2nc(-c3cncc(C(C)(C)O)c3)ccc2NS(C)(=O)=O)c(C)n1 [Compound I-220] | > 25 µM | ≥ 25 µM |
| Cc1nc(C)c(Oc2nc(-c3cncc(C(F)(F)F)c3)ccc2NS(C)(=O)=O)c(C)n1 [Compound I-192] | 1 to 10 µM | < 25 µM |
| COc1cc(C)c(Oc2nc(-c3cncc(C#N)c3)ccc2NS(C)(=O)=O)c(C)n1 [Compound I-222] | < 1 µM | < 1 µM |
| Cc1nc(N2CC(F)(F)C2)nc(C)c1Oc1nc(-c2cncc(C#N)c2)ccc1NS(C)(=O)=O [Compound I-170] | < 1 µM | < 1 µM |

Results, then the compound that gave them:

| EC50 [1] | EC50 [2] | Compound |
| --- | --- | --- |
| < 1 µM | < 1 µM | Cc1cc(C2CC2)c(Oc2nc(-c3cncc(C#N)c3)ccc2NS(C)(=O)=O)c(C)n1 [Compound I-171] |
| < 1 µM | < 1 µM | Cc1cc(C)c(Oc2nc(-c3cncc(N4CC(F)C4)c3)ccc2NS(C)(=O)=O)c(C)n1 [Compound I-185] |
| < 1 µM | ≥ 25 µM | Cc1nc(C(F)(F)F)nc(C)c1Oc1nc(-c2cncc(Cl)c2)ccc1NS(C)(=O)=O [Compound I-205] |
| < 1 µM | < 1 µM | Cc1cc(C)c(Oc2nc(-c3cncc(N4CCC4)c3)ccc2NS(C)(=O)=O)c(C)n1 [Compound I-190] |
| < 1 µM | < 1 µM | Cc1nc(C2CC2)c(C(F)(F)F)cc1Oc1nc(-c2cncc(C#N)c2)ccc1NS(C)(=O)=O [Compound I-184] |
| < 1 µM | < 1 µM | Cc1nc(C(F)F)nc(C)c1Oc1nc(-c2cncc(Cl)c2)ccc1NS(C)(=O)=O [Compound I-175] |
| < 1 µM | < 1 µM | Cc1cc(N2CCC2)nc(C)c1Oc1nc(-c2cncc(C#N)c2)ccc1NS(C)(=O)=O [Compound I-177] |
| < 1 µM | < 1 µM | Cc1cc(C)c(Oc2nc(-c3cncc(C#N)c3)ccc2NS(=O)(=O)C2(C)CC2)c(C)n1 [Compound I-172] |
| < 1 µM | 1 to 10 µM | Cc1nc(C)c(Oc2nc(-c3cncc(C#N)c3)ccc2NS(C)(=O)=O)c(C)n1 [Compound I-234] |
| < 1 µM | < 1 µM | C#Cc1cncc(-c2ccc(NS(C)(=O)=O)c(Oc3c(C)cc(C)nc3C)n2)c1 [Compound I-212] |
| < 1 µM | < 1 µM | Cc1cc(Oc2nc(-c3cncc(C#N)c3)ccc2NS(C)(=O)=O)c(C)nc1C(F)(F)F [Compound I-182] |
| < 1 µM | < 1 µM | Cc1nc(C)c(Oc2nc(-c3cncc(C4CC4)c3)ccc2NS(C)(=O)=O)c(C)n1 [Compound I-193] |
| < 1 µM | < 1 µM | Cc1cc(OC(F)(F)F)nc(C)c1Oc1nc(-c2cncc(C#N)c2)ccc1NS(C)(=O)=O [Compound I-131] |
| < 1 µM | < 25 µM | Cc1cc(C)c(Oc2nc(-c3cncc(C#N)c3)ccc2NS(=O)(=O)C2COC2)c(C)n1 [Compound I-228] |
| < 1 µM | < 1 µM | Cc1cc(C(F)(F)F)nc(C)c1Oc1nc(-c2ccnc(C#N)c2)ccc1NS(C)(=O)=O [Compound I-219] |
| < 1 µM | < 25 µM | Cc1nc(C2CC2)c(Cl)cc1Oc1nc(-c2cncc(C#N)c2)ccc1NS(C)(=O)=O [Compound I-120] |
| < 1 µM | < 1 µM | Cc1nc(C(F)(F)F)nc(C)c1Oc1nc(-c2cncc(C#N)c2)ccc1NS(C)(=O)=O [Compound I-200] |
| < 1 µM | < 1 µM | Cc1nc(C)c(Oc2nc(-c3cncc(C(F)F)c3)ccc2NS(C)(=O)=O)c(C)n1 [Compound I-191] |
| < 1 µM | < 1 µM | Cc1cc(C(F)F)nc(C)c1Oc1nc(-c2cncc(C#N)c2)ccc1NS(C)(=O)=O [Compound I-230] |
